In patent publication US12465590B2, “Oxalamido-substituted tricyclic inhibitors of hepatitis b virus” (priority 2019, dated 2025):

tested on: HBV; experiment: HBV inhibition assay in HepAD38 cells (extracellular HBV DNA by direct qPCR); assay type: cell-based, HBV genotype D subtype ayw; conditions: 96 hours, read-out: HBV inh EC50
Text: HepAD38 cell line (Ladner et al., Antimicrob Agents Chemother, 1997, 41, 1715-20) was used for HBV inhibition assays. HepAD38 is a subclone, derived from hepatoblastoma cell line HepG2 (ATCC® Number: HB-8065), that expresses HBV genome (genotype D subtype ayw) under the transcriptional control of a tetracycline-responsive promoter in a TET-OFF system: addition of doxycycline, an antibiotic belonging to the class of tetracycline, suppresses HBV replication, while its removal switches on the process allowing HBV viral particles release in the cell supernatant. HepAD38 cell line is maintained in DMEM/F12, supplemented with 10% of fetal bovine serum, 1% of glutamine, 1% of penicillin/streptomycin, 0.4 mg/ml G418 and 0.3 ug/ml tetracycline. For the HBV inhibition assay, doxycycline-free medium is used in order to allow virion production.
HBV inhibition activity in vitro was performed in 96 multiwell plates. During the initial (primary) screening, compounds were first tested in triplicates at concentrations of 0.02 μM, 0.1 μM, 0.5 μM and 1 μM. For selected compounds, an 8-point dose-response curve was obtained using 1:2 serial dilutions (starting from 0.01 μM, 0.1 μM, 0.4 μM or 5 μM, depending on the degree of inhibition observed during the primary screening). From the dose-response curves, half maximal effective concentration (EC50) could be calculated (see also below).
In more detail, compounds—typically dissolved in DMSO stock solutions—were diluted to 2× the final desired concentration in 100 μl of the above medium (without doxycycline) and plated in three replicates in the 96-well plates.
Simultaneously, HepAD38 cells—extensively pre-washed in doxycycline-free medium in order to induce HBV production—were suspended at 2*10^4 cells in 100 μl of doxycycline-free medium and added to each well of the plate, to yield a final assay volume of 200 μl.
DMSO, used for stock solutions and compounds dilutions, was always present in the assays at a final concentration of 0.5%.
Plates were then incubated 96 hours at 37° C. and then subjected to cell viability assays and extracellular HBV quantification, in order to evaluate both the cytotoxic potential and the antiviral activity of compounds.
Cytotoxicity was assessed by a commercial fluorescence assay that measures the metabolic activity of cells, directly related to cell viability (Cell Titer Blue, Promega). For each compound, cytotoxicity was evaluated at the same concentration employed to evaluate its anti-HBV activity. Anti-HBV activity was evaluated by quantification of extracellular HBV DNA with direct qPCR. In particular, supernatant was collected and centrifuged for cell debris clarification, viral DNA was extracted from virions by addition of lysis buffer (1 mM 1,4-dithiothreitol, 0.2% sodium dodecyl sulphate) and incubated at 95° C. for 10 min. Samples were then diluted 1:40 and real time PCR amplification was performed with SYBR green assay (Power SYBR™ Green PCR Master Mix-Thermo Fisher Scientific) and specific HBV primer (HBV-DF:5′-[…]-3′ (SEQ ID No. 1), HBV-DR:5′-[…]-3′ (SEQ ID No. 2)).
Antiviral activity data for each compound are reported as EC50 value (see Table 1 legend). Excel and Graphpad Prism programs are typically used for data elaboration and EC50 calculation.

| SMILES | EC50 |
| --- | --- |
| Cc1cc(NC(=O)c2c3c(cn2C)S(=O)(=O)NC2CN(C(=O)C(=O)NC4CC4)CCC2CO3)ccc1F (racemic) [Example E67, Trans-7-(2-(cyclopropylamino)-2-oxoacetyl)-N-(4-fluoro-3-methylphenyl)-2-methyl-5,5a,6,7,8,9,9a,10-octahydro-2H-pyrido[3,4-f]pyrrolo[3,4-b][1,4,5]oxathiazocine-1-carboxamide 4,4-dioxide] | < 500 nM |
| Cc1cc(NC(=O)c2c3c(cn2C)S(=O)(=O)NC2CCN(C(=O)C(=O)NCC(F)(F)F)CC2CO3)ccc1F (racemic) [Example E73, Cis-N-(4-fluoro-3-methylphenyl)-2-methyl-8-(2-oxo-2-((2,2,2-trifluoroethyl)amino)acetyl)-5,5a,6,7,8,9,9a,10-octahydro-2H-pyrido[4,3-f]pyrrolo[3,4-b][1,4,5]oxathiazocine-1-carboxamide 4,4-dioxide] | < 500 nM |

same assay, conditions: Hepatitis B virus, 96 hours, read-out: HBV inh EC50

| SMILES | EC50 |
| --- | --- |
| Cc1cc(NC(=O)c2c3c(cn2C)S(=O)(=O)NC2CN(C(=O)C(=O)NC(C)(C)C(F)(F)F)CCC2CO3)ccc1F (racemic) [Example E62, Cis-N-(4-fluoro-3-methylphenyl)-2-methyl-7-(2-oxo-2-((1,1,1-trifluoro-2-methylpropan-2-yl)amino)acetyl)-5,5a,6,7,8,9,9a,10-octahydro-2H-pyrido[3,4-f]pyrrolo[3,4-b][1,4,5]oxathiazocine-1-carboxamide 4,4-dioxide] | < 500 nM |
| Cc1cc(NC(=O)c2c3c(cn2C)S(=O)(=O)NC2CCN(C(=O)C(=O)N[C@@H](C)C(F)(F)F)CC2CO3)ccc1F (mixture of isomers) [Example E56, Trans-N-(4-fluoro-3-methylphenyl)-2-methyl-8-(2-oxo-2-(((S)-1,1,1-trifluoropropan-2-yl)amino)acetyl)-5,5a,6,7,8,9,9a,10-octahydro-2H-pyrido[4,3-f]pyrrolo[3,4-b][1,4,5]oxathiazocine-1-carboxamide 4,4-dioxide] | < 500 nM |
| Cc1cc(NC(=O)c2c3c(cn2C)S(=O)(=O)NC2CCN(C(=O)C(=O)N4CC(F)(F)C4)CC2CO3)ccc1F (racemic) [Example E55, Trans-8-(2-(3,3-difluoroazetidin-1-yl)-2-oxoacetyl)-N-(4-fluoro-3-methylphenyl)-2-methyl-5,5a,6,7,8,9,9a,10-octahydro-2H-pyrido[4,3-f]pyrrolo[3,4-b][1,4,5]oxathiazocine-1-carboxamide 4,4-dioxide] | < 500 nM |
| Cc1cc(NC(=O)c2c3c(cn2C)S(=O)(=O)NC2CN(C(=O)C(=O)N[C@H](C)C(F)(F)F)CCC2CO3)ccc1F (mixture of isomers) [Example E60, Cis-N-(4-fluoro-3-methylphenyl)-2-methyl-7-(2-oxo-2-(((R)-1,1,1-trifluoropropan-2-yl)amino)acetyl)-5,5a,6,7,8,9,9a,10-octahydro-2H-pyrido[3,4-f]pyrrolo[3,4-b][1,4,5]oxathiazocine-1-carboxamide 4,4-dioxide] | < 500 nM |
| Cc1cc(NC(=O)c2c3c(cn2C)S(=O)(=O)NC2CN(C(=O)C(=O)N[C@H](C)C(F)(F)F)CC2CO3)ccc1F (stereo in doubt) [Example E30, trans-N-(4-fluoro-3-methylphenyl)-7-methyl-2-(2-oxo-2-(((R)-1,1,1-trifluoropropan-2-yl)amino)acetyl)-2,3,3a,4,10,10a-hexahydro-1H,7H-dipyrrolo[3,4-b:3′,4′-f][1,4,5]oxathiazocine-8-carboxamide 5,5-dioxide] | < 500 nM |
| Cc1cc(NC(=O)c2c3c(cn2C)S(=O)(=O)NC2CN(C(=O)C(=O)NCC(F)(F)F)CCC2CO3)ccc1F (racemic) [Example E61, Cis-N-(4-fluoro-3-methylphenyl)-2-methyl-7-(2-oxo-2-((2,2,2-trifluoroethyl)amino)acetyl)-5,5a,6,7,8,9,9a,10-octahydro-2H-pyrido[3,4-f]pyrrolo[3,4-b][1,4,5]oxathiazocine-1-carboxamide 4,4-dioxide] | < 500 nM |
| Cc1cc(NC(=O)c2c3c(cn2C)S(=O)(=O)NC2CCN(C(=O)C(=O)N[C@H](C)C(F)(F)F)CC2CO3)ccc1F (mixture of isomers) [Example E59, Trans-N-(4-fluoro-3-methylphenyl)-2-methyl-8-(2-oxo-2-(((R)-1,1,1-trifluoropropan-2-yl)amino)acetyl)-5,5a,6,7,8,9,9a,10-octahydro-2H-pyrido[4,3-f]pyrrolo[3,4-b][1,4,5]oxathiazocine-1-carboxamide 4,4-dioxide] | < 500 nM |
| Cc1cc(NC(=O)c2c3c(cn2C)S(=O)(=O)NC2CCN(C(=O)C(=O)NC(C)(C)C(F)(F)F)CC2CO3)ccc1F (racemic) [Example E58, Trans-N-(4-fluoro-3-methylphenyl)-2-methyl-8-(2-oxo-2-((1,1,1-trifluoro-2-methylpropan-2-yl)amino)acetyl)-5,5a,6,7,8,9,9a,10-octahydro-2H-pyrido[4,3-f]pyrrolo[3,4-b][1,4,5]oxathiazocine-1-carboxamide 4,4-dioxide] | < 500 nM |
| Cc1cc(NC(=O)c2c3c(cn2C)S(=O)(=O)N[C@H]2CN(C(=O)C(=O)N[C@H](C)C(F)(F)F)C[C@@]2(O)CO3)ccc1F [Example E75, (3aS,10aS)—N-(4-fluoro-3-methylphenyl)-10a-hydroxy-7-methyl-2-(2-oxo-2-(((R)-1,1,1-trifluoropropan-2-yl)amino)acetyl)-2,3,3a,4,10,10a-hexahydro-1H,7H-dipyrrolo[3,4-b:3′,4′-f][1,4,5]oxathiazocine-8-carboxamide 5,5-dioxide] | < 500 nM |
| Cc1cc(NC(=O)c2c3c(c(Br)n2C)S(=O)(=O)N[C@H]2CN(C(=O)C(=O)N[C@H](C)C(F)(F)F)C[C@H]2CO3)ccc1F [Example E52, (3aR,10aR)-6-bromo-N-(4-fluoro-3-methylphenyl)-7-methyl-2-(2-oxo-2-(((R)-1,1,1-trifluoropropan-2-yl)amino)acetyl)-2,3,3a,4,10,10a-hexahydro-1H,7H-dipyrrolo[3,4-b:3′,4′-f][1,4,5]oxathiazocine-8-carboxamide 5,5-dioxide] | < 500 nM |
| Cc1cc(NC(=O)c2c3c(cn2C)S(=O)(=O)NC2CCN(C(=O)C(=O)NCC(F)(F)F)CC2CO3)ccc1F (racemic) [Example E57, Trans-N-(4-fluoro-3-methylphenyl)-2-methyl-8-(2-oxo-2-((2,2,2-trifluoroethyl)amino)acetyl)-5,5a,6,7,8,9,9a,10-octahydro-2H-pyrido[4,3-f]pyrrolo[3,4-b][1,4,5]oxathiazocine-1-carboxamide 4,4-dioxide] | < 500 nM |
| Cc1cc(NC(=O)c2c3c(cn2C)S(=O)(=O)NC2CCN(C(=O)C(=O)NC4CC4)CC2CO3)ccc1F (racemic) [Example E54, Trans-8-(2-(cyclopropylamino)-2-oxoacetyl)-N-(4-fluoro-3-methylphenyl)-2-methyl-5,5a,6,7,8,9,9a,10-octahydro-2H-pyrido[4,3-f]pyrrolo[3,4-b][1,4,5]oxathiazocine-1-carboxamide 4,4-dioxide] | < 500 nM |
| Cc1cc(NC(=O)c2c3c(cn2C)S(=O)(=O)N[C@H]2CN(C(=O)C(=O)N[C@H](C)C(F)(F)F)C[C@@]2(C)CO3)ccc1F [Example E74, (3aR,10aR)—N-(4-fluoro-3-methylphenyl)-7,10a-dimethyl-2-(2-oxo-2-(((R)-1,1,1-trifluoropropan-2-yl)amino)acetyl)-2,3,3a,4,10,10a-hexahydro-1H,7H-dipyrrolo[3,4-b:3′,4′-f][1,4,5]oxathiazocine-8-carboxamide 5,5-dioxide] | < 500 nM |
| Cc1cc(NC(=O)c2c3c(cn2C)S(=O)(=O)NC2CN(C(=O)C(=O)N[C@@H](C)C(F)(F)F)CCC2CO3)ccc1F (mixture of isomers) [Example E65, Cis-N-(4-fluoro-3-methylphenyl)-2-methyl-7-(2-oxo-2-(((S)-1,1,1-trifluoropropan-2-yl)amino)acetyl)-5,5a,6,7,8,9,9a,10-octahydro-2H-pyrido[3,4-f]pyrrolo[3,4-b][1,4,5]oxathiazocine-1-carboxamide 4,4-dioxide] | < 500 nM |
